Test results from patent US20200069691A1, “HETEROCYCLIC COMPOUNDS AS HIV PROTEASE INHIBITORS” (Merck Sharp & Dohme Corp., priority 2016, published 2020).
pIC50: −log10 of the molar value.

Target: T1, wild-type HIV-1 protease (Human immunodeficiency virus type 1 group M subtype B, UniProt P04585)
T1 construct: Escherichia coli expressed wild-type HIV-1 protease protein
Test: Assay for Inhibition of Microbial Expressed HIV Protease (peptide substrate cleavage, LC-MS/MS readout)
Type: biochemical
Conditions: E. coli expressed wild-type HIV-1 protease, mean of at least two independent experiments, read-out: HIV Pr Enzyme HIV1 PR IC50
In short: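 Cleavage of Val-Ser-Gln-Asn-(β-naphthyl)Ala-Pro-Ile-Val (400 μM) by recombinant HIV-1 protease ([…]) ran 1 h at 30 °C after a 30 min room-temperature inhibitor preincubation in 50 mM sodium acetate pH 5.5. Product peak areas by LC-MS/MS gave inhibition; values average at least two independent runs.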

SMILES	pIC50
CC(=O)N1CCN(C(=O)c2cc(CN3C(=N)N[C@](CCCC(F)(F)F)(c4ccc(F)cc4)C3=O)ccc2C(F)(F)F)CC1 [Compound 109, (5R)-3-{3-[(4-acetylpiperazin-1-yl)carbonyl]-4-(trifluoromethyl)-benzyl}-5-(4-fluorophenyl)-2-imino-5-(4,4,4-trifluorobutyl)-imidazolidin-4-one]	7.58
CC(C)CC[C@]1(c2ccccc2)NC(=N)N([C@@H]2CCS(=O)(=O)c3ccc(C(=O)N4Cc5nccnc5C4)cc32)C1=O [Compound 111, (5R)-3-[(4R)-6-(5,7-dihydro-6H-pyrrolo[3,4-b]pyrazin-6-ylcarbonyl)-1,1-dioxido-3,4-dihydro-2H-thiochromen-4-yl]-2-imino-5-(3-methylbutyl)-5-phenylimidazolidin-4-one]	7.55
COCC(=O)N1CCN(C(=O)c2cc(CN3C(=N)N[C@](CCCC(F)(F)F)(c4ccc(F)cc4)C3=O)ccc2C(F)(F)F)CC1 [Compound 112, (5R)-5-(4-fluorophenyl)-2-imino-3-[3-{[4-(methoxyacetyl)piperazin-1-yl]carbonyl}-4-(trifluoromethyl)benzyl]-5-(4,4,4-trifluorobutyl)imidazolidin-4-one]	7.51
N=C1N[C@](CCCC(F)(F)F)(c2ccc(F)cc2)C(=O)N1Cc1ccc(C(F)(F)F)c(C(=O)N2Cc3cnc(-c4cnc(-c5ccc(F)cc5)o4)nc3C2)c1 [Compound 113, (5R)-5-(4-fluorophenyl)-3-[3-({2-[2-(4-fluorophenyl)-1,3-oxazol-5-yl]-5,7-dihydro-6H-pyrrolo[3,4-d]pyrimidin-6-yl}carbonyl)-4-(trifluoromethyl)benzyl]-2-imino-5-(4,4,4-trifluorobutyl)imidazolidin-4-one]	7.50
N=C1NC(CCC2CC2)(c2cccc(C(F)(F)F)c2)C(=O)N1Cc1ccc(C(F)(F)F)c(C(=O)N2Cc3nccnc3C2)c1 (stereo not shown) [Compound 114, 5-(2-cyclopropylethyl)-3-[3-(5,7-dihydro-6H-pyrrolo[3,4-b]pyrazin-6-ylcarbonyl)-4-(trifluoromethyl)-benzyl]-2-imino-5-[3-(trifluoromethyl)-phenyl]-imidazolidin-4-one]	7.46
CNC(=O)N1CCN(C(=O)c2cc(CN3C(=N)N[C@](CCCC(F)(F)F)(c4ccc(F)cc4)C3=O)ccc2C(F)(F)F)CC1 [Compound 115, 4-{[5-{[(4R)-4-(4-fluorophenyl)-2-imino-5-oxo-4-(4,4,4-trifluoro-butyl)imidazolidin-1-yl]methyl}-2-(trifluoromethyl)phenyl]carbonyl}-N-methylpiperazine-1-carboxamide]	7.44
N=C1N[C@](CCCC(F)(F)F)(c2ccc(F)cc2)C(=O)N1[C@@H]1CCCc2ccc(C(=O)N3Cc4nccnc4C3)cc21 [Compound 116, (5R)-3-[(1R)-7-(5,7-dihydro-6H-pyrrolo[3,4-b]pyrazin-6-ylcarbonyl)-1,2,3,4-tetrahydro-naphthalen-1-yl]-5-(4-fluoro-phenyl)-2-imino-5-(4,4,4-trifluorobutyl)imidazolidin-4-one]	7.42
N=C1N[C@](CCCC(F)(F)F)(c2ccc(F)cc2)C(=O)N1Cc1ccc(C(F)(F)F)c(C(=O)N2Cc3cnc(-c4ccc(-n5nccn5)cc4)nc3C2)c1 [Compound 117, (5R)-5-(4-fluorophenyl)-2-imino-3-[3-({2-[4-(2H-1,2,3-triazol-2-yl)phenyl]-5,7-dihydro-6H-pyrrolo[3,4-d]pyrimidin-6-yl}carbonyl)-4-(trifluoromethyl)-benzyl]-5-(4,4,4-trifluorobutyl)-imidazolidin-4-one]	7.41
N=C1N[C@](CCCC(F)(F)F)(c2ccc(F)cc2)C(=O)N1Cc1ccc(C(F)(F)F)c(C(=O)N2CCN(c3ccccc3)CC2)c1 [Compound 119, (5R)-5-(4-fluorophenyl)-2-imino-3-{3-[(4-phenylpiperazin-1-yl)carbonyl]-4-(trifluoromethyl)-benzyl}-5-(4,4,4-trifluorobutyl)-imidazolidin-4-one]	7.38
N=C1N[C@](CCCC(F)(F)F)(c2ccc(F)cc2)C(=O)N1Cc1ccc(C(F)(F)F)c(C(=O)N2Cc3cnc(-c4cc(F)cc(F)c4)nc3C2)c1 [Compound 121, (5R)-3-[3-{[2-(3,5-difluorophenyl)-5,7-dihydro-6H-pyrrolo[3,4-d]pyrimidin-6-yl]carbonyl}-4-(trifluoromethyl)benzyl]-5-(4-fluorophenyl)-2-imino-5-(4,4,4-trifluorobutyl)imidazolidin-4-one]	7.35
N=C1N[C@](CCCC(F)(F)F)(c2ccc(F)cc2)C(=O)N1Cc1ccc(C(F)(F)F)c(C(=O)N2CCn3nc(C4CC4)nc3C2)c1 [Compound 122, (5R)-3-{3-[(2-cyclopropyl-5,6-dihydro[1,2,4]triazolo[1,5-a]pyrazin-7(8H)-yl)carbonyl]-4-(trifluoromethyl)benzyl}-5-(4-fluorophenyl)-2-imino-5-(4,4,4-trifluorobutyl)imidazolidin-4-one]	7.32
CC(C)CC(c1ccc(C(F)(F)F)c(C(=O)N2CCn3c(nnc3C(F)(F)F)C2)c1)N1C(=N)N[C@](C[C@@H]2CCOC2)(c2ccc(F)cc2)C1=O (stereo partly drawn) [Compound 123, (5R)-5-(4-fluorophenyl)-2-imino-3-{3-methyl-1-[4-(trifluoromethyl)-3-{[3-(trifluoromethyl)-5,6-dihydro-[1,2,4]triazolo[4,3-a]pyrazin-7(8H)-yl]carbonyl}phenyl]butyl}-5-[(3R)-tetrahydrofuran-3-ylmethyl]-imidazolidin-4-one]	7.25
CC(C)CC[C@]1(c2ccccc2)NC(=N)N([C@@H]2CCCc3ccc(C(=O)N4Cc5nccnc5C4)cc32)C1=O [Compound 124, (5R)-3-[(1R)-7-(5,7-dihydro-6H-pyrrolo[3,4-b]pyrazin-6-ylcarbonyl)-1,2,3,4-tetrahydro-naphthalen-1-yl]-2-imino-5-(3-methylbutyl)-5-phenylimidazolidin-4-one]	7.24
N=C1NC(CCC2CC2)(c2ccc(C(F)(F)F)cc2)C(=O)N1Cc1ccc(C(F)(F)F)c(C(=O)N2CCn3c(nnc3C(F)(F)F)C2)c1 (stereo not shown) [Compound 125, 5-(2-cyclopropylethyl)-2-imino-5-[4-(trifluoromethyl)phenyl]-3-[4-(trifluoromethyl)-3-{[3-(trifluoromethyl)-5,6-dihydro-[1,2,4]triazolo[4,3-a]pyrazin-7(8H)-yl]carbonyl}benzyl] imidazolidin-4-one]	7.24
CC(C)CC[C@]1(c2ccccc2)NC(=N)N(Cc2ccc(S(C)(=O)=O)c(C(=O)N3Cc4nccnc4C3)c2)C1=O [Compound 126, (5R)-3-[3-(5,7-dihydro-6H-pyrrolo[3,4-b]pyrazin-6-ylcarbonyl)-4-(methylsulfonyl)-benzyl]-2-imino-5-(3-methylbutyl)-5-phenylimidazolidin-4-one]	7.22
N=C1N[C@](CCCC(F)(F)F)(c2ccc(F)cc2)C(=O)N1Cc1ccc(C(F)(F)F)c(C(=O)N2CCN(CC(F)(F)F)CC2)c1 [Compound 127, (5R)-5-(4-fluorophenyl)-2-imino-5-(4,4,4-trifluorobutyl)-3-[3-{[4-(2,2,2-trifluoroethyl)piperazin-1-yl]carbonyl}-4-(trifluoromethyl)-benzyl]imidazolidin-4-one]	7.19
N=C1N[C@](C[C@@H]2CCOC2)(c2ccccc2)C(=O)N1Cc1ccc(C(F)(F)F)c(C(=O)N2Cc3nccnc3C2)c1 [Compound 128, (5R)-3-[3-(5,7-dihydro-6H-pyrrolo[3,4-b]pyrazin-6-ylcarbonyl)-4-(trifluoromethyl)-benzyl]-2-imino-5-phenyl-5-[(3R)-tetrahydrofuran-3-ylmethyl]-imidazolidin-4-one]	7.17
N=C1N[C@](CCC2CC2)(c2ccc(F)cc2)C(=O)N1[C@@H]1CCCc2ccc(C(=O)N3Cc4nccnc4C3)cc21 [Compound 129, (5R)-5-(2-cyclopropylethyl)-3-[(1R)-7-(5,7-dihydro-6H-pyrrolo[3,4-b]pyrazin-6-ylcarbonyl)-1,2,3,4-tetrahydronaphthalen-1-yl]-5-(4-fluorophenyl)-2-iminoimidazolidin-4-one]	7.15
N=C1NC(CCC2CC2)(c2ccc(C(F)(F)F)cc2)C(=O)N1Cc1ccc(C(F)(F)F)c(C(=O)N2CCn3c(nnc3C(F)(F)F)C2)c1 (stereo not shown) [Compound 131, 5-(2-cyclopropylethyl)-2-imino-5-[4-(trifluoromethyl)phenyl]-3-[4-(trifluoromethyl)-3-{[3-(trifluoromethyl)-5,6-dihydro-[1,2,4]triazolo[4,3-a]pyrazin-7(8H)-yl]carbonyl}benzyl] imidazolidin-4-one]	7.07
N=C1N[C@](CCCC(F)(F)F)(c2ccc(F)cc2)C(=O)N1Cc1ccc(C(F)(F)F)c(C(=O)N2CCN3c4ccccc4CC3C2)c1 (stereo partly drawn) [Compound 132, (5R)-5-(4-fluorophenyl)-2-imino-3-[3-(3,4,10,10a-tetrahydropyrazino-[1,2-a]indol-2(1H)-ylcarbonyl)-4-(trifluoromethyl)benzyl]-5-(4,4,4-trifluorobutyl)imidazolidin-4-one]	7.06
N=C1N[C@](CCCC(F)(F)F)(c2ccc(F)cc2)C(=O)N1Cc1ccc(C(F)(F)F)c(C(=O)N2Cc3cnc(-c4cnn(-c5cccc(Cl)c5)c4)nc3C2)c1 [Compound 133, (5R)-3-[3-({2-[1-(3-chlorophenyl)-1H-pyrazol-4-yl]-5,7-dihydro-6H-pyrrolo[3,4-d]pyrimidin-6-yl}carbonyl)-4-(trifluoromethyl)-benzyl]-5-(4-fluorophenyl)-2-imino-5-(4,4,4-trifluorobutyl)imidazolidin-4-one]	7.06
N#Cc1ncc2c(n1)CN(C(=O)c1cc(CN3C(=N)NC(c4ccc(F)cc4)(c4ccc(F)cc4)C3=O)ccc1C(F)(F)F)C2 [Compound 134, 6-{[5-{[4,4-bis(4-fluorophenyl)-2-imino-5-oxoimidazolidin-1-yl]methyl}-2-(trifluoromethyl)-phenyl]carbonyl}-6,7-dihydro-5H-pyrrolo[3,4-d] pyrimidine-2-carbonitrile]	8.97
